According to patent US10350255B2, “Polygonum cuspidatum extracts” (priority 2015, dated 2019):
Like-named read-outs stand apart in the source and are kept apart here.

What was measured:
S. mutans = assay: Agar diffusion test (TSA, bored hole / paper disk), dark vs light; assay type: cell-based, Streptococcus mutans; conditions: for zone of inhibition at 5000 µg/mL: chlorhexidine control 5 mg/mL
microorganisms = assay: Photodynamic inactivation by isolated fractions and commercial anthraquinones; assay type: cell-based; conditions: for Order of photodynamic inactivation of microorganisms: commercial samples of anthraquinones; for Photodynamic effect of components isolated by fractionation: isolated by fractionation of the extract
Excerpt: The anthraquinones, or their glycosylated derivatives, could be responsible for the photosensitizing effect of the extract. […] Commercial samples of anthraquinones produced photodynamic inactivation of microorganisms in the order emodin>physcion>rhein. In some P. cuspidatum extracts, the proportions of emodin and physcion are between 0.51-0.65% and 0.24-0.27% by weight, respectively.

S. aureus = assay: Agar diffusion test (TSA, bored hole / paper disk), dark vs light; assay type: cell-based, Staphylococcus aureus; conditions: for zone of inhibition at 5000 µg/mL: Staphylococcus aureus, chlorhexidine control 5 mg/mL
[1] = light-activated, extract 40 μg, components at their proportions found in the extract
[2] = light-activated, extract 40 μg, components at their proportions found in the extract, listed as Emodin 0.001%
[3] = comparative test, samples at strength as labelled, dark
[4] = comparative test, samples at strength as labelled, light 36 J cm^-2

In the case of Cc1cc(O)c2c(c1)C(=O)c1cc(O)cc(O)c1C2=O [Emodin], the zone of inhibition at 40 µg/disc (S. mutans; Streptococcus mutans, light or radiation study, higher concentrations: 20 μL of 2 mg mL^-1 = 40 μg, light 36 J cm^-2 (FIG. 14), read-out: Inhibition zone (photoactivity)) is reported as 10 mm, the “Inhibition zone, S. mutans, Light” value (S. mutans; [1]) is reported as 7 mm and the “Inhibition zone, S. mutans, Light” value (S. mutans; [2]) is reported as 7.0 mm. The “Order of photodynamic inactivation of microorganisms” value (microorganisms) was “emodin>physcion>rhein”, the “Photodynamic effect of components isolated by fractionation” value (“Photodynamic effect … by fractionation” for short) (microorganisms) was “greatest photodynamic effect” and the “Inhibition zone, S. aureus, Light” value (S. aureus; [2]) was 8.5 mm.

COc1cc(O)c2c(c1)C(=O)c1cc(C)cc(O)c1C2=O [Physcion] was tested, and the “Inhibition zone, S. mutans, Light” value (S. mutans; [1]) was “inactive”, the “Order of photodynamic inactivation of microorganisms” value (microorganisms) was “emodin>physcion>rhein” and the “Inhibition zone, S. aureus, Light” value (S. aureus; light-activated, extract 40 μg, components at their proportions found in the extract, listed as Physcion 0.001%) was 8.5 mm.

In the case of Cc1cc2nc3ccc(N(C)C)cc3[s+]c2cc1N.[Cl-] [TB 1%, Toluidine Blue 0], the “Inhibition zone, S. mutans, Dark” value (S. mutans; [3]) is reported as 15 mm, the “Inhibition zone, S. mutans, Light” value (S. mutans; [4]) is reported as 15 mm and the “Inhibition zone, S. aureus, Dark” value (S. aureus; [3]) is reported as 15 mm. For the same molecule, the “Inhibition zone, S. aureus, Light” value (S. aureus; [4]) was 16 mm.

COc1cc(O[C@@H]2O[C@H](CO)[C@@H](O)[C@H](O)[C@H]2O)c2c(c1)C(=O)c1cc(C)cc(O)c1C2=O [anthraquinones A] was tested, and the “Photodynamic effect … by fractionation” value (microorganisms) was “inactive”.

For Cc1cc(O)c2c(c1)C(=O)c1cc(O)cc(O[C@@H]3O[C@H](CO)[C@@H](O)[C@H](O)[C@H]3O)c1C2=O [anthraquinones B, Anthraglycoside B], the “Photodynamic effect … by fractionation” value (microorganisms) was “inactive”.

[H]/N=C(\N/C(=N/[H])NCCCCCCNC(=N)NC(=N)Nc1ccc(Cl)cc1)Nc1ccc(Cl)cc1 [chlorhexidine, Chlorhexidine Digluconate] showed a zone of inhibition at 5000 µg/mL (S. mutans; Streptococcus mutans, dark, read-out: Inhibition zone, S. mutans, dark (reference)) of 18 mm, a zone of inhibition at 5000 µg/mL (S. mutans; Streptococcus mutans, light 35 J cm^-2, read-out: Inhibition zone, S. mutans, light (reference)) of 18 mm and a zone of inhibition at 5000 µg/mL (S. aureus; dark, read-out: Inhibition zone, S. aureus, dark (reference)) of 18 mm. For the same molecule, the zone of inhibition at 5000 µg/mL (S. aureus; light 35 J cm^-2, read-out: Inhibition zone, S. aureus, light (reference)) was 18 mm.

In the case of Oc1ccc(C=Cc2cc(O)cc(O)c2)cc1 [resveratrol, Resveratrol], the “Antimicrobial activity in the dark” value (S. mutans; agar diffusion, dark (FIG. 14)) is reported as “inactive” and the “Antimicrobial activity with light activation” value (S. mutans; agar diffusion, light 36 J cm^-2 (FIG. 14)) is reported as “inactive”.
